# Test results reported in publication PMC12193833, “Toxicity Assessment and Antifungal Potential of Copper(II) and Silver(I) Complexes with 1,10-Phenanthroline-5,6-dione Against Drug-Resistant Clinical Isolates of Cryptococcus gattii and Cryptococcus neoformans” (Journal of Fungi, 2025).
# Tests used:
# [1] = test system: G. mellonella; details: cited from earlier work
# [2] = test system: six clinical Cryptococcus isolates; assay: Susceptibility to clinically available antifungals, all six isolates; type: cell-based, Cryptococcus neoformans and Cryptococcus gattii
# Text: (§1) Six clinical isolates belonging to the Cryptococcus genus were obtained from patients who attended the Instituto Nacional de Infectologia Evandro Chagas (INI), Fundação Oswaldo Cruz (FIOCRUZ), and were kindly provided by Dr. Rodrigo Almeida-Paes (INI-FIOCRUZ). To comply with ethical standards and institutional agreements between UFRJ and FIOCRUZ, patient data were not disclosed. In this sense, the C. neoformans isolates were designated CFP00213 (213), CFP00223 (223), and CFP00350 (350), while the C. gattii isolates were labeled CFP00023 (23), CFP00025 (25), and CFP00027 (27). Before each experiment, an aliquot of the culture was transferred from Sabouraud dextrose agar (2% glucose, 1% peptone, and 0.5% yeast extract) to RPMI 1640 medium (Sigma-Aldrich, St. Louis, MO, USA), pH 7.2, buffered with 0.165 M MOPS (Sigma-Aldrich, St. Louis, MO, USA). RPMI medium induces the expression of capsular polysaccharides, the primary virulence factor of Cryptococcus cells. The cultures were incubated at 37 °C for 48 h to promote cell proliferation, stimulate metabolic activation, and enhance capsular development. Yeast cell counts were determined using a Neubauer chamber.
# (§2) The susceptibility profile was evaluated using the microdilution method in RPMI 1640 medium buffered with 0.165 M MOPS, following the M27-A3 protocol for yeasts established by the Clinical and Laboratory Standards Institute (CLSI). […] Each fungal isolate was classified as either wild-type or non-wild-type for each antifungal based on the epidemiological cutoff values provided in CLSI M59 ED3, 2020 [32].
# [3] = test system: C. gattii clinical isolates; assay: Susceptibility to clinically available antifungals, CLSI M27-A3 microdilution; type: cell-based; details: Cryptococcus gattii
# Text: as §1, §2
# [4] = test system: C. neoformans clinical isolates; assay: as above; type: cell-based; details: Cryptococcus neoformans
# Text: as §1, §2
# [5] = test system: C. gattii clinical isolates; assay: MIC/MFC of test compounds, microdilution; type: cell-based, Cryptococcus gattii; details: for MIC: read-out: MIC
# Text: as §1
# (§3) Following MIC determination, the MFC was assessed by inoculating 10 µL from wells showing no visible fungal growth onto Sabouraud dextrose agar. […] To further support and strengthen the evidence of the anti-Cryptococcus activity of the Cu-phendione and Ag-phendione complexes, we additionally performed MIC/MFC assays using well-characterized standard reference strains: ATCC 28957, H99, T1444 (all C. neoformans), and R265 (C. gattii).
# [6] = test system: Galleria mellonella larvae; assay: In vivo acute toxicity, single treatment; details: single inoculation
# Description: In this set of experiments, G. mellonella larvae weighing approximately 0.2–0.3 g and displaying clear, uniform coloration were used. The larvae were inoculated (10 µL/larva) using an insulin syringe (BD Ultra-Fine, Franklin Lakes, NJ, USA) at the last left proleg. […] We also assessed their coloration through visual analysis as an indicator of stress levels. Throughout the experiments, the larvae were maintained at 37 °C [19, 42]. Two distinct treatment protocols were designed to evaluate the effects of the test compounds on larval survivability, as detailed below.
# For the acute toxicity analysis, the test compounds were administered to the larvae in a single inoculation at concentrations ranging from 1000 to 125 μM. Each group consisted of 10 larvae, while the control group received only sterile PBS with 4% DMSO. […] The SI was calculated using the following equation: SI = G. mellonella CC50/Cryptococcus MIC.
# [7] = test system: C. neoformans clinical isolates; assay: MIC/MFC of test compounds, microdilution; type: cell-based, Cryptococcus neoformans; details: for MIC: read-out: MIC
# Text: as §1, §3
# [8] = test system: G. mellonella larvae; design: method as in PMID 32265890; details: cited from earlier work
# [9] = across all six clinical Cryptococcus isolates
# [10] = 24 h, C. gattii isolate 23, 37 °C
# [11] = 24 h, C. gattii isolate 25, 37 °C
# [12] = 24 h, C. gattii isolate 27, 37 °C
# [13] = C. gattii isolate 23, value in brackets
# [14] = C. gattii isolate 25, value in brackets
# [15] = C. gattii isolate 27, value in brackets
# [16] = 24 h, C. neoformans isolate 213, 37 °C
# [17] = 24 h, C. neoformans isolate 223, 37 °C
# [18] = 24 h, C. neoformans isolate 350, 37 °C
# [19] = C. neoformans isolate 213, value in brackets
# [20] = C. neoformans isolate 223, value in brackets
# [21] = C. neoformans isolate 350, value in brackets
# [22] = all C. gattii clinical isolates
# [23] = all C. neoformans clinical isolates
"MIC [3, 10]","MIC [3, 11]","MIC [3, 12]","MIC [3, 13]","MIC [3, 14]","MIC [3, 15]","MIC [4, 16]","MIC [4, 17]","MIC [4, 18]","MIC [4, 19]","MIC [4, 20]","MIC [4, 21]",Compound,further results
–,–,–,–,–,–,–,–,–,–,–,–,"O.O.O.O.O=C([O-])c1cccc(C(=O)[O-])c1.O=C([O-])c1cccc(C(=O)[O-])c1.[Mn+2].[Mn+2].c1cnc2c(c1)ccc1cccnc12.c1cnc2c(c1)ccc1cccnc12.c1cnc2c(c1)ccc1cccnc12 [[Mn2(isophthalic acid)2(1,10-phenanthroline)3]·4H2O]",RNA levels encoding transferrin and inducible metalloproteinase inhibitor protein (IMPI) [1]: increased
> 8 µg/mL,> 8 µg/mL,> 8 µg/mL,> 7.3 µM,> 7.3 µM,> 7.3 µM,> 8 µg/mL,> 8 µg/mL,> 8 µg/mL,> 7.3 µM,> 7.3 µM,> 7.3 µM,"CC[C@H](C)C[C@H](C)CCCCCCCCC(=O)N[C@H]1C[C@@H](O)[C@@H](NCCN)NC(=O)[C@@H]2[C@@H](O)CCN2C(=O)[C@H]([C@H](O)CCN)NC(=O)[C@H]([C@H](O)[C@@H](O)c2ccc(O)cc2)NC(=O)[C@@H]2C[C@@H](O)CN2C(=O)[C@H]([C@@H](C)O)NC1=O [Caspofungin, caspofungin]","Hemocyte density [1]: do not increase hemocyte density; MIC [2, 9]: > 8 µg/mL"
4 µg/mL,2 µg/mL,4 µg/mL,11.4 µM,5.72 µM,11.4 µM,0.5 µg/mL,16 µg/mL,2 µg/mL,1.4 µM,45.8 µM,5.72 µM,"C[C@@H](c1ncncc1F)[C@](O)(Cn1cncn1)c1ccc(F)cc1F [Voriconazole, voriconazole]","MIC [2, 9]: 0.5 to 16 µg/mL"
–,–,–,–,–,–,–,–,–,–,–,–,"O.O.O.O.O.O=C([O-])c1ccc(C(=O)[O-])cc1.[Mn+2].c1cnc2c(c1)ccc1cccnc12.c1cnc2c(c1)ccc1cccnc12 [[Mn(terephthalic acid)(1,10-phenanthroline)2]·5H2O]",Gallerimycin expression [1]: upregulated; RNA levels encoding transferrin and inducible metalloproteinase inhibitor protein (IMPI) [1]: increased
0.03 µg/mL,0.03 µg/mL,0.03 µg/mL,0.03 µM,0.03 µM,0.03 µM,0.03 µg/mL,> 16 µg/mL,0.03 µg/mL,0.03 µM,> 17.3 µM,0.03 µM,"C[C@@H]1[C@H](O)[C@@H](C)/C=C/C=C/C=C/C=C/C=C/C=C/C=C/[C@H](O[C@@H]2O[C@H](C)[C@@H](O)[C@H](N)[C@@H]2O)C[C@@H]2O[C@](O)(C[C@@H](O)C[C@@H](O)[C@H](O)CC[C@@H](O)C[C@@H](O)CC(=O)O[C@H]1C)C[C@H](O)[C@H]2C(=O)O [Amphotericin B, amphotericin B]",MIC ([2]; all other Cryptococcus isolates (except C. neoformans isolate printed as 233)): 0.03 µg/mL
–,–,–,–,–,–,–,–,–,–,–,–,"[Ag+].[O-][Cl+3]([O-])([O-])[O-] [AgClO4, silver perchlorate]","MFC ([5]; C. gattii isolate 23): 12.5 µM; MIC ([5]; C. gattii isolate 23): 1.56 µM; MFC ([5]; C. gattii isolate 25): 12.5 µM; MIC ([5]; C. gattii isolate 25): 1.56 µM; MFC ([5]; C. gattii isolate 27): 12.5 µM; MIC ([5]; C. gattii isolate 27): 1.56 µM; MFC [5, 22]: 12.5 µM; MIC [5, 22]: 1.56 µM; Larval mortality ([6]; 250 µM): 20%; Larval mortality ([6]; 500 µM): 20%; Larval mortality ([6]; 1000 µM): 50%; MFC ([7]; C. neoformans isolate 213): > 100 µM; MIC ([7]; C. neoformans isolate 213): 1.56 µM; MFC ([7]; C. neoformans isolate 223): > 100 µM; MIC ([7]; C. neoformans isolate 223): 1.56 µM; MFC ([7]; C. neoformans isolate 350): > 100 µM; MIC ([7]; C. neoformans isolate 350): 1.56 µM; MFC [7, 23]: > 100 µM; MIC [7, 23]: 1.56 µM"
–,–,–,–,–,–,–,–,–,–,–,–,"{[Cu(3,6,9-trioxaundecanedioic acid)(1,10-phenanthroline)2]3H2O·EtOH}n","Mortality rate in G. mellonella larvae ([8]; 750 µg/mL): 60%; Toxicity in G. mellonella larvae ([8]; up to 500 µg/mL, within 72 h): no toxicity"
